# Data from patent US20060014825A1, “Novel k99-5278 substance and a process for producing the same” (priority 2002, published 2006).
# Assays:
# [1] = system: Aspergillus niger KF103 (ATCC 6275); experiment: Antifungal activity by paper disc method; type: cell-based; conditions: ATCC6275, 10 μg, GY agar medium, 27° C. for 24 hours
# Description: (§1) Biological properties of K99-5278 substance of the present invention are explained in detail hereinbelow. • (1) Assays of antifungal activities by paper disc method (filter paper disc method)
# (§2) Antifungal activities of K99-5278 substance were performed using Aspergillus niger KF103 (ATCC 6275), Mucor racemosus KF223 (IFO 4581), Candida albicans KF1 and Saccharomyces cerevisiae KF26. Aspergillus niger KF103 (ATCC 6275) and Candida albicans KF1 were inoculated at 0.2%, and Mucor racemosus KF223 (IFO 4581) and Saccharomyces cerevisiae KF26 were inoculated at 0.3% in GY agar medium (glucose 1.0%, yeast extract 0.5%, agar 0.8%, pH 6.0). Activities were evaluated by paper disc method (thickness: 6 mm: Advantec Inc., Japan), and a diameter of the inhibition ring was measured after incubating at 27° C. for 24 hours.
# Candida albicans KF1 = experiment: Antifungal activity by paper disc method; type: cell-based; conditions: 10 μg, GY agar medium, 27° C. for 24 hours
# Description: as §1, §2
# [2] = system: Mucor racemosus KF223 (IFO 4581); experiment: Antifungal activity by paper disc method; type: cell-based; conditions: IFO4581, 10 μg, GY agar medium, 27° C. for 24 hours
# Description: as §1, §2
# [3] = system: Saccharomyces cerevisiae KF26; experiment: Antifungal activity by paper disc method; type: cell-based; conditions: 10 μg, GY agar medium, 27° C. for 24 hours
# Description: as §1, §2
# [4] = system: Saccharomyces cerevisiae KF26; experiment: Antifungal activity by liquid culture method (turbidity at 550 nm); type: cell-based; conditions: Saccharomyces cerevisiae KF26, liquid medium, 27° C. for 24 hours; read-out: IC50 for growth of the test organism
# Description: Antifungal activities of K99-5278A substance, K99-5278B substance and K99-5278C substance by the liquid medium were performed as follows. • 1) Saccharomyces cerevisiae KF26 was used as a test organism. Samples dissolved in DMSO were added in the 96 well microplate and the solvent was distilled off in vacuo. Suspension, in which Saccharomyces cerevisiae KF26 0.3% was inoculated in a medium (glucose 1.0% and yeast extract 0.5%, pH 6.0), 200 μl/well was added and incubated at 27° C. for 24 hours. After the incubation, turbidity was measured by using absorption spectrometer with wavelength at 550 nm. Activity was determined by setting the value without drug addition as 100%, and the concentration shown by 50% turbidity was set as IC50.
# Aspergillus niger KF103 = experiment: as above; type: cell-based; conditions: Aspergillus niger KF103, liquid medium, 27° C. for 48 hours; read-out: IC50 for growth of the test organism
# Description: (§3) Samples dissolved in DMSO were added in the 96 well microplate and the solvent was distilled off in vacuo. Suspension, in which Aspergillus niger KF103 0.3% was inoculated in a medium (glucose 1.0% and yeast extract 0.5%, pH 6.0), 200 μl/well was added and incubated at 27° C. for 48 hours. After the incubation, turbidity was measured by using absorption spectrometer with wavelength at 550 nm. Activity was determined by setting the value without drug addition as 100%, and the concentration shown by 50% turbidity was set as IC50.
# Mucor racemosus KF223 = experiment: as above; type: cell-based; conditions: Mucor racemosus KF223, liquid medium, 27° C. for 24 hours; read-out: IC50 for growth of the test organism
# Description: as §3, with “Mucor racemosus KF223” for “Aspergillus niger KF103”, “24” for “48”
# Candida albicans KFI = experiment: as above; type: cell-based; conditions: liquid medium, 27° C. for 24 hours, read-out: IC50 for growth of the test organism
# Description: as §3, with “Candida albicans KF1” for “Aspergillus niger KF103”, “24” for “48”
compound,measurement,setting,value
CC1/C=C/C=C/C=C/C=C/C=C/C(O)CC(O)CC(O)CC(O)CCCC(O)CC(O)C(C)C(=O)OC1C (stereo not drawn) [K99-5278A substance],zone of inhibition at 10 µg/disc,[1],18 mm
same,zone of inhibition at 10 µg/disc,Candida albicans KF1,9 mm
same,zone of inhibition at 10 µg/disc,[2],9 mm
same,zone of inhibition at 10 µg/disc,[3],12 mm
same,IC50,[4],7.2 µg/mL
same,IC50,Aspergillus niger KF103,0.32 µg/mL
same,IC50,Mucor racemosus KF223,15 µg/mL
same,IC50,Candida albicans KFI,61 µg/mL
same,Solubility in solvent,Solubility in solvent; chloroform,slightly soluble
same,Solubility in solvent,Solubility in solvent; dimethyl sulfoxide (DMSO),soluble
same,Solubility in solvent,Solubility in solvent; ethyl acetate,slightly soluble
same,Solubility in solvent,Solubility in solvent; hexane,insoluble
same,Solubility in solvent,Solubility in solvent; methanol,soluble
same,Solubility in solvent,Solubility in solvent; water,insoluble
CC(C)C1OC(=O)C(C)C(O)CC(O)CCCC(O)CC(O)CC(O)C(C)C(O)/C=C/C=C/C=C/C=C/C=C/C1C (stereo not drawn) [K99-5278C substance],zone of inhibition at 10 µg/disc,[1],15 mm
same,zone of inhibition at 10 µg/disc,Candida albicans KF1,8 mm
same,zone of inhibition at 10 µg/disc,[2],8 mm
same,zone of inhibition at 10 µg/disc,[3],9 mm
same,IC50,[4],16.6 µg/mL
same,IC50,Aspergillus niger KF103,0.75 µg/mL
same,IC50,Mucor racemosus KF223,35 µg/mL
same,IC50,Candida albicans KFI,140 µg/mL
same,Solubility in solvent,Solubility in solvent; chloroform,slightly soluble
same,Solubility in solvent,Solubility in solvent; dimethyl sulfoxide (DMSO),soluble
same,Solubility in solvent,Solubility in solvent; ethyl acetate,slightly soluble
same,Solubility in solvent,Solubility in solvent; hexane,insoluble
same,Solubility in solvent,Solubility in solvent; methanol,soluble
same,Solubility in solvent,Solubility in solvent; water,insoluble
CCC1OC(=O)C(C)C(O)CC(O)CCCC(O)CC(O)CC(O)C(C)C(O)/C=C/C=C/C=C/C=C/C=C/C1C (stereo not drawn) [K99-5278B substance],zone of inhibition at 10 µg/disc,[1],16 mm
same,zone of inhibition at 10 µg/disc,Candida albicans KF1,7 mm
same,zone of inhibition at 10 µg/disc,[2],9 mm
same,zone of inhibition at 10 µg/disc,[3],12 mm
same,IC50,[4],11.8 µg/mL
same,IC50,Aspergillus niger KF103,0.53 µg/mL
same,IC50,Mucor racemosus KF223,25 µg/mL
same,IC50,Candida albicans KFI,100 µg/mL
same,Solubility in solvent,Solubility in solvent; chloroform,insoluble
same,Solubility in solvent,Solubility in solvent; dimethyl sulfoxide (DMSO),soluble
same,Solubility in solvent,Solubility in solvent; ethyl acetate,insoluble
same,Solubility in solvent,Solubility in solvent; hexane,insoluble
same,Solubility in solvent,Solubility in solvent; methanol,soluble
same,Solubility in solvent,Solubility in solvent; water,insoluble
